Source: patent USRE37781E1, “Substituted cyclic carbonyls and derivatives thereof useful as retroviral protease inhibitors” (DuPont Pharmaceuticals Company, priority 1991, dated 2002)
≈ marks a conversion by molar mass, not a printed value. Read-outs that look alike come from different tables or passages of the source.

Assays:
[1] = biological target: single-chain tethered dimer of HIV protease (Human immunodeficiency virus 1, UniProt P04585); test: biochemical; assay type: biochemical; design: fused on or other part: A second copy of the same protease unit is joined to the first by a short peptide tether, giving one polypeptide
HIV-1 (RF) in MT-2 cells = test: microbe, parasite or virus in culture; assay type: cell-based
Procedure, shortened: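 HIV-1 laboratory strains (RF, MN, IIIB) grown in H9 cells in RPMI 1640 with 5% FCS; infections in MT-2 cells. Viral RNA quantified by hybridization with biotinylated gag/pol capture probes on streptavidin plates and alkaline phosphatase-conjugated reporter probes; BH10 gag-pol in vitro transcripts serve as RNA standards.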

[2] = Table 2d, class symbols, read-out: HPLC K1
[3] = read-out: HPLC K1, Table 2d, class symbols
[4] = Human immunodeficiency virus 1, MT2, 48 h, Table 2d, class symbols, read-out: IC90
[5] = Table 2d, HIV protease inhibition, HPLC method, read-out: HPLC K1
[6] = read-out: HPLC K1, Table 2d, HIV protease inhibition, HPLC method
[7] = Human immunodeficiency virus 1, MT2, 48 h, Table 2d, HIV RNA assay, read-out: IC90

Question: `O=C1N(CC2CC2)C(Cc2ccccc2)C(O)C(O)C(Cc2ccccc2)N1CC1CC1` (centres unmarked) [Example 13J] was tested. Which Ki [1, 2] did it give?
Answer: Its Ki is < 0.01 µM.

Question: What about the IC90 (HIV-1 (RF) in MT-2 cells; Table 2d, class symbols) of the same molecule?
Answer: The IC90 was “+++ (+++=<10 μg/mL)”.

Question: How did the Ki [1, 3] turn out when `O=C1NC(Cc2ccccc2)C(O)C(O)C(Cc2ccccc2)N1CCOCCO` (centres unmarked) [Example 12T] was run?
Answer: The Ki was 0.01 to 1 µM.

Question: What about the IC90 (HIV-1 (RF) in MT-2 cells; [4]) of the same molecule?
Answer: Its IC90 is > 100 mg/L.

Question: `O=C1N(Cc2cccc(C(O)CO)c2)C(Cc2ccccc2)C(O)C(O)C(Cc2ccccc2)N1Cc1cccc(C(O)CO)c1` (centres unmarked) [11K] was tested. Which Ki [1, 3] did it give?
Answer: The Ki was < 0.01 µM.

Question: What about the IC90 (HIV-1 (RF) in MT-2 cells; [4]) of the same molecule?
Answer: Its IC90 is < 10 mg/L.

Question: For `O=C1N(Cc2ccc3c(c2)NS(=O)(=O)N3)C(Cc2ccccc2)C(O)C(O)C(Cc2ccccc2)N1Cc1ccc2c(c1)NS(=O)(=O)N2` (centres unmarked) [15CW], which Ki [1, 5] is on record?
Answer: Its Ki is < 0.01 µM.

Question: What about the IC90 (HIV-1 (RF) in MT-2 cells; Table 2d, HIV RNA assay) of the same molecule?
Answer: The IC90 was “++ (++=10 to 100 μg/mL)”.

Question: What does the source list for `COC(=O)Cc1cccc(CN2C(=O)N(Cc3cccc(CC(=O)OC)c3)C(Cc3ccccc3)C(O)C(O)C2Cc2ccccc2)c1` (centres unmarked) [15DW]?
Answer: Ki [1, 5]: < 0.01 µM; IC90 (HIV-1 (RF) in MT-2 cells; Table 2d, HIV RNA assay): +++ (+++=<10 μg/mL)

Question: What does the source list for `O=C1N(CCCCCCO)C(Cc2ccccc2)C(O)C(O)C(Cc2ccccc2)N1CCCCCCCl` (centres unmarked) [Example 15VE]?
Answer: Ki [1, 3]: 0.01 to 1 µM; IC90 (HIV-1 (RF) in MT-2 cells; [4]): < 10 mg/L

Question: Which results are given for `O=C(O)c1ccc(CN2C(=O)N(Cc3ccc(CO)cc3)C(Cc3ccccc3)C(O)C(O)C2Cc2ccccc2)cc1` (centres unmarked) [15XA]?
Answer: Ki [1, 6]: < 0.01 µM; IC90 (HIV-1 (RF) in MT-2 cells; [7]): 10 to 100 mg/L (≈ 17.2 to 172 µM)

Question: What does the source list for `NC(=NO)c1cccc(CN2C(=S)N(Cc3ccc(CO)cc3)C(Cc3ccccc3)C(O)C(O)C2Cc2ccccc2)c1` (centres unmarked) [Example 27I]?
Answer: Ki ([1]; Table 2q, read-out: HPLC Ki): < 0.01 µM; IC90 (HIV-1 (RF) in MT-2 cells; Table 2q): +++ (+++=<10 μg/mL)

Question: With `O=C1N(CCCCCO)C(Cc2ccccc2)C(O)C(O)C(Cc2ccccc2)N1CCCCCO` (centres unmarked) [Example 13H] as the molecule, how does the Ki [1, 3] read?
Answer: The Ki was < 0.01 µM.

Question: What about the IC90 (HIV-1 (RF) in MT-2 cells; [4]) of the same molecule?
Answer: The IC90 was < 10 mg/L.

Question: For `N#Cc1cccc(CN2C(=O)N(Cc3ccc(O)cc3)C(Cc3ccccc3)C(O)C(O)C2Cc2ccccc2)c1` (centres unmarked) [Example 15AQ], which Ki [1, 6] is on record?
Answer: The Ki was < 0.01 µM.

Question: And the IC90 (HIV-1 (RF) in MT-2 cells; [7])?
Answer: Its IC90 is < 10 mg/L.

Question: How did the Ki [1, 3] turn out when `O=C1N(CCCCCO)C(Cc2ccccc2)C(O)C(O)C(Cc2ccccc2)N1Cc1cccc(O)c1` (centres unmarked) [Example 15VR] was run?
Answer: The Ki was < 0.01 µM.

Question: And the IC90 (HIV-1 (RF) in MT-2 cells; [4])?
Answer: The IC90 was < 10 mg/L.

Question: Which Ki ([1]; Table 2m, read-out: HPLC Ki) does the source give for `CCCCN1C(Cc2ccccc2)C(O)C(O)C(Cc2ccccc2)N(CCCC)S1(=O)=O` (centres unmarked) [23G] here?
Answer: Its Ki is < 0.01 µM.

Question: And the IC90 (HIV-1 (RF) in MT-2 cells; Table 2m)?
Answer: The IC90 was “+++ (+++=<10 μg/mL)”.

Question: For `C=CCN1C(=O)N(CC=C)[C@H](Cc2ccccc2)[C@@H](O)[C@H](O)[C@H]1Cc1ccccc1` [Example 13N], which Ki [1, 3] is on record?
Answer: Its Ki is > 1 µM.

Question: And the IC90 (HIV-1 (RF) in MT-2 cells; Human immunodeficiency virus 1, MT2, 48 h)?
Answer: Its IC90 is 10 to 100 mg/L (≈ 24.6 to 246 µM).

Question: For `N#Cc1cc(CN2C(=O)N(Cc3ccc(F)c(C#N)c3)C(Cc3ccccc3)C(O)C(O)C2Cc2ccccc2)ccc1F` (centres unmarked) [15EC], which Ki [1, 6] is on record?
Answer: The Ki was 0.01 to 1 µM.

Question: What about the IC90 (HIV-1 (RF) in MT-2 cells; [7]) of the same molecule?
Answer: Its IC90 is < 10 mg/L.

Question: Which Ki ([1]; Table 2i, read-out: HPLC Ki) does the source give for `O=C1N(Cc2cccc(-c3cc[nH]n3)c2)C(Cc2ccc(F)cc2)C(O)C(O)C(Cc2ccc(F)cc2)N1CC1CC1` (centres unmarked) [20AE] here?
Answer: The Ki was < 0.01 µM.

Question: What about the IC90 (HIV-1 (RF) in MT-2 cells; Table 2i) of the same molecule?
Answer: Its IC90 is “+++ (+++=<10 μg/mL)”.

Question: What does the source list for `O=C(O)CCCCCN1C(=O)N(CCCCCC(=O)O)C(Cc2ccccc2)C(O)C(O)C1Cc1ccccc1` (centres unmarked) [Example 12G]?
Answer: Ki [1, 3]: < 0.01 µM; IC90 (HIV-1 (RF) in MT-2 cells; [4]): < 10 mg/L

Question: How did the Ki ([1]; Table 2i, read-out: HPLC Ki) turn out when `O=C1N(Cc2cccc(O)c2)C(Cc2cccc(O)c2)C(O)C(O)C(Cc2cccc(O)c2)N1Cc1cccc(O)c1` (centres unmarked) [20AQ] was run?
Answer: The Ki was < 0.01 µM.

Question: And the IC90 (HIV-1 (RF) in MT-2 cells; Table 2i)?
Answer: The IC90 was “+++ (+++=<10 μg/mL)”.

Question: `O=C(NCCN1CCOCC1)c1cccc(CN2C(=O)N(CC3CC3)C(Cc3ccccc3)C(O)C(O)C2Cc2ccccc2)c1` (centres unmarked) [15YB] was tested. Which Ki [1, 5] did it give?
Answer: The Ki was < 0.01 µM.

Question: And the IC90 (HIV-1 (RF) in MT-2 cells; Table 2d, HIV RNA assay)?
Answer: The IC90 was “+++ (+++=<10 μg/mL)”.

Question: For `O=C1N(CCCCCNC(=S)Nc2ccccc2)C(Cc2ccccc2)C(O)C(O)C(Cc2ccccc2)N1CCCCCNC(=S)Nc1ccccc1` (centres unmarked) [15EW], which Ki [1, 5] is on record?
Answer: The Ki was 0.01 to 1 µM.

Question: And the IC90 (HIV-1 (RF) in MT-2 cells; Table 2d, HIV RNA assay)?
Answer: The IC90 was “++/+ (The ++/+ is used in the cases where an IC90 was determined to be >50 μg/mL)”.

Question: Which results are given for `O=C(CCl)Nc1cccc(CN2C(=O)N(Cc3cccc(NC(=O)CCl)c3)C(Cc3ccccc3)C(O)C(O)C2Cc2ccccc2)c1` (centres unmarked) [Example 15AA]?
Answer: Ki [1, 6]: < 0.01 µM; IC90 (HIV-1 (RF) in MT-2 cells; [7]): < 10 mg/L

Question: How did the Ki [1, 3] turn out when `CCCNC(=O)c1cccc(CN2C(=O)N(Cc3cccc(C(=O)NCCC)c3)C(Cc3ccccc3)C(O)C(O)C2Cc2ccccc2)c1` (centres unmarked) [15WM] was run?
Answer: Its Ki is < 0.01 µM.

Question: And the IC90 (HIV-1 (RF) in MT-2 cells; [4])?
Answer: Its IC90 is < 10 mg/L.

Question: `O=C1N(Cc2ccc(CO)cc2)C(Cc2ccccc2)C(O)C(O)C(Cc2ccccc2)N1Cc1ccc(CO)cc1` (centres unmarked) [10Z] was tested. Which Ki [1, 3] did it give?
Answer: The Ki was > 1 µM.

Question: What about the IC90 (HIV-1 (RF) in MT-2 cells; Table 2d, class symbols) of the same molecule?
Answer: Its IC90 is “++ (++=10 to 100 μg/mL)”.

Question: What does the source list for `O=C1N(Cc2cccc(OCC(O)CO)c2)C(Cc2ccccc2)C(O)C(O)C(Cc2ccccc2)N1Cc1cccc(OCC(O)CO)c1` (centres unmarked) [10T]?
Answer: Ki [1, 2]: < 0.01 µM; IC90 (HIV-1 (RF) in MT-2 cells; Table 2d, class symbols): +++ (+++=<10 μg/mL)

Question: For `NNC(=O)c1ccc(CN2C(=O)N(Cc3cccc(C(=O)NN)c3)C(Cc3ccccc3)C(O)C(O)C2Cc2ccccc2)cc1` (centres unmarked) [10N], which Ki [1, 2] is on record?
Answer: The Ki was < 0.01 µM.

Question: What about the IC90 (HIV-1 (RF) in MT-2 cells; Table 2d, class symbols) of the same molecule?
Answer: Its IC90 is “+++ (+++=<10 μg/mL)”.

Question: For `O=C1N(CC2CC2)C(C(F)Cc2ccccc2)C[C@@H](Cc2ccccc2)N1CC1CC1` (some centres unmarked) [Example 8N], which Ki ([1]; read-out: Ki (HPLC), Table 1e, cells marked (HPLC)) is on record?
Answer: The Ki was > 1 µM.

Question: What about the IC90 (HIV-1 (RF) in MT-2 cells; Human immunodeficiency virus 1, MT2, Table 1e, read-out: IC90) of the same molecule?
Answer: The IC90 was < 10 mg/L.
